Assay results from the OligoGym collection.
HELM strings list units from the 5' end as sugar, base in round brackets, then linkage (d deoxyribose, r ribose, m 2'-O-methyl, p phosphodiester). Strings are as the collection lists them; they lack the last nucleoside at the 3' end of the tested compound. [moe] = 2'-O-(2-methoxyethyl) (MOE); [sp] = phosphorothioate linkage; [m5C] = 5-methylcytosine

These substances were tested against HTT (assay: mouse, dose not given). Details: ASO.

Row | Substance | 3 h FOB score [score 0-7]
1 | RNA1{[moe](A)[sp].[moe](A)p.[moe]([m5C])p.[moe](A)p.[moe](A)[sp].d(A)[sp].d(T)[sp].d(A)[sp].d(T)[sp].d(T)[sp].d(T)[sp].d(T)[sp].d([m5C])[sp].d(A)[sp].d(A)[sp].[moe]([m5C])p.[moe](T)p.[moe](G)[sp].[moe](G)}$$$$ (last 3' nucleoside missing) | 4.5
2 | RNA1{[moe](A)[sp].[moe](T)p.[moe]([m5C])p.[moe]([m5C])p.[moe](A)[sp].d(G)[sp].d(A)[sp].d(T)[sp].d(T)[sp].d(A)[sp].d(T)[sp].d(A)[sp].d([m5C])[sp].d(A)[sp].d(T)[sp].[moe]([m5C])p.[moe](T)p.[moe]([m5C])[sp].[moe]([m5C])}$$$$ (last 3' nucleoside missing) | 0
3 | RNA1{[moe](A)[sp].[moe]([m5C])p.[moe](A)p.[moe](G)p.[moe]([m5C])[sp].d(T)[sp].d(T)[sp].d(T)[sp].d(T)[sp].d(A)[sp].d(T)[sp].d(T)[sp].d(T)[sp].d([m5C])[sp].d([m5C])[sp].[moe](A)p.[moe](T)p.[moe](A)[sp].[moe]([m5C])}$$$$ (last 3' nucleoside missing) | 1
4 | RNA1{[moe](A)[sp].[moe]([m5C])p.[moe](A)p.[moe](G)p.[moe]([m5C])p.[moe](T)p.d(T)[sp].d(T)[sp].d(T)[sp].d(A)[sp].d(T)[sp].d(T)[sp].d(T)[sp].d([m5C])[sp].d([m5C])[sp].d(A)[sp].[moe](T)p.[moe](A)[sp].[moe]([m5C])}$$$$ (last 3' nucleoside missing) | 0
5 | RNA1{[moe](A)[sp].[moe]([m5C])p.[moe](T)p.[moe]([m5C])p.[moe](A)[sp].d(T)[sp].d(T)[sp].d(T)[sp].d([m5C])[sp].d([m5C])[sp].d(A)[sp].d([m5C])[sp].d([m5C])[sp].d(T)[sp].d(T)[sp].[moe]([m5C])p.[moe](A)p.[moe](G)[sp].[moe]([m5C])}$$$$ (last 3' nucleoside missing) | 0
6 | RNA1{[moe](G)[sp].[moe](G)p.[moe](T)p.[moe](T)p.[moe](A)[sp].d(G)[sp].d(T)[sp].d(T)[sp].d(T)[sp].d(T)[sp].d([m5C])[sp].d([m5C])[sp].d(T)[sp].[moe](T)p.[moe](T)p.[moe](T)[sp].[moe](A)}$$$$ (last 3' nucleoside missing) | 1
7 | RNA1{[moe](G)[sp].[moe](G)p.[moe](T)p.[moe](T)p.[moe](A)[sp].d(G)[sp].d(T)[sp].d(T)[sp].d(T)[sp].d(T)[sp].d([m5C])[sp].d([m5C])[sp].d(T)[sp].d(T)[sp].d(T)[sp].[moe](T)p.[moe](A)p.[moe](T)[sp].[moe](A)}$$$$ (last 3' nucleoside missing) | 1
8 | RNA1{[moe](G)[sp].[moe](G)p.[moe](T)p.[moe]([m5C])p.[moe](A)[sp].d([m5C])[sp].d(A)[sp].d(G)[sp].d([m5C])[sp].d(T)[sp].d(T)[sp].d(T)[sp].d(T)[sp].d(A)[sp].d(T)[sp].[moe](T)p.[moe](T)p.[moe]([m5C])[sp].[moe]([m5C])}$$$$ (last 3' nucleoside missing) | 0
9 | RNA1{[moe](G)[sp].[moe](T)p.[moe](G)p.[moe]([m5C])p.[moe](A)[sp].d(T)[sp].d(T)[sp].d(A)[sp].d([m5C])[sp].d(T)[sp].d(T)[sp].d(T)[sp].d(T)[sp].d(T)[sp].d(A)[sp].[moe]([m5C])p.[moe](A)p.[moe](A)[sp].[moe](T)}$$$$ (last 3' nucleoside missing) | 1.25
10 | RNA1{[moe](G)[sp].[moe](T)p.[moe](G)p.[moe]([m5C])p.[moe](A)p.[moe](T)p.d(T)[sp].d(A)[sp].d([m5C])[sp].d(T)[sp].d(T)[sp].d(T)[sp].d(T)[sp].d(T)[sp].d(A)[sp].d([m5C])[sp].[moe](A)p.[moe](A)[sp].[moe](T)}$$$$ (last 3' nucleoside missing) | 3
11 | RNA1{[moe](G)[sp].[moe](T)p.[moe]([m5C])[sp].[moe](A)[sp].[moe]([m5C])[sp].d(A)[sp].d(G)[sp].d([m5C])[sp].d(T)[sp].d(T)[sp].d(T)[sp].d(T)[sp].d(A)[sp].d(T)[sp].d(T)[sp].[moe](T)[sp].[moe]([m5C])p.[moe]([m5C])[sp].[moe](A)}$$$$ (last 3' nucleoside missing) | 1.25
12 | RNA1{[moe](G)[sp].[moe](T)p.[moe]([m5C])p.[moe](A)p.[moe]([m5C])[sp].d(A)[sp].d(G)[sp].d([m5C])[sp].d(T)[sp].d(T)[sp].d(T)[sp].d(T)[sp].d(A)[sp].d(T)[sp].d(T)[sp].[moe](T)p.[moe]([m5C])p.[moe]([m5C])[sp].[moe](A)}$$$$ (last 3' nucleoside missing) | 1
13 | RNA1{[moe](G)[sp].[moe]([m5C])p.[moe](A)[sp].[moe](T)[sp].[moe](T)[sp].d(A)[sp].d([m5C])[sp].d(T)[sp].d(T)[sp].d(T)[sp].d(T)[sp].d(T)[sp].d(A)[sp].d([m5C])[sp].d(A)[sp].[moe](A)[sp].[moe](T)p.[moe](G)[sp].[moe](G)}$$$$ (last 3' nucleoside missing) | 5.25
14 | RNA1{[moe](G)[sp].[moe]([m5C])p.[moe](A)p.[moe](T)p.[moe](T)[sp].d(A)[sp].d([m5C])[sp].d(T)[sp].d(T)[sp].d(T)[sp].d(T)[sp].d(T)[sp].d(A)[sp].d([m5C])[sp].d(A)[sp].[moe](A)p.[moe](T)p.[moe](G)[sp].[moe](G)}$$$$ (last 3' nucleoside missing) | 1
15 | RNA1{[moe](G)[sp].[moe]([m5C])p.[moe](A)p.[moe](T)p.[moe]([m5C])[sp].d(T)[sp].d(T)[sp].d(G)[sp].d(T)[sp].d(T)[sp].d(T)[sp].d(T)[sp].d(A)[sp].d([m5C])[sp].d([m5C])[sp].[moe](A)p.[moe]([m5C])p.[moe]([m5C])[sp].[moe]([m5C])}$$$$ (last 3' nucleoside missing) | 1.5
16 | RNA1{[moe](G)[sp].[moe]([m5C])p.[moe](T)p.[moe](T)p.[moe](T)[sp].d(G)[sp].d(A)[sp].d(T)[sp].d(T)[sp].d(T)[sp].d(T)[sp].d(T)[sp].d(A)[sp].d([m5C])[sp].d([m5C])[sp].[moe](A)p.[moe](G)p.[moe](T)[sp].[moe](T)}$$$$ (last 3' nucleoside missing) | 1
17 | RNA1{[moe](G)[sp].[moe]([m5C])p.[moe](T)p.[moe](T)p.[moe](T)[sp].d(T)[sp].d(G)[sp].d(A)[sp].d(A)[sp].d(A)[sp].d(T)[sp].d(T)[sp].d([m5C])[sp].d(T)[sp].d([m5C])[sp].[moe]([m5C])p.[moe](A)p.[moe](T)[sp].[moe]([m5C])}$$$$ (last 3' nucleoside missing) | 6.75
18 | RNA1{[moe](G)[sp].[moe]([m5C])p.[moe](T)p.[moe](T)p.[moe](T)p.[moe](G)p.d(A)[sp].d(T)[sp].d(T)[sp].d(T)[sp].d(T)[sp].d(T)[sp].d(A)[sp].d([m5C])[sp].d([m5C])[sp].d(A)[sp].[moe](G)p.[moe](T)[sp].[moe](T)}$$$$ (last 3' nucleoside missing) | 0.5
19 | RNA1{[moe](G)[sp].[moe]([m5C])p.[moe]([m5C])p.[moe](A)p.[moe](T)[sp].d(A)[sp].d(T)[sp].d(T)[sp].d(T)[sp].d(T)[sp].d([m5C])[sp].d(T)[sp].d([m5C])[sp].d(A)[sp].d(A)[sp].[moe]([m5C])p.[moe](T)p.[moe](T)[sp].[moe](T)}$$$$ (last 3' nucleoside missing) | 0
20 | RNA1{[moe](T)[sp].[moe](G)p.[moe]([m5C])p.[moe](A)p.[moe](T)p.[moe](T)p.d(A)[sp].d([m5C])[sp].d(T)[sp].d(T)[sp].d(T)[sp].d(T)[sp].d(T)[sp].d(A)[sp].d([m5C])[sp].d(A)[sp].[moe](A)p.[moe](T)[sp].[moe](G)}$$$$ (last 3' nucleoside missing) | 6.5
21 | RNA1{[moe](T)[sp].[moe](G)p.[moe]([m5C])p.[moe](T)p.[moe](G)[sp].d([m5C])[sp].d(T)[sp].d([m5C])[sp].d(A)[sp].d([m5C])[sp].d(T)[sp].d([m5C])[sp].d(A)[sp].d(T)[sp].d(T)[sp].[moe](T)p.[moe]([m5C])p.[moe]([m5C])[sp].[moe](A)}$$$$ (last 3' nucleoside missing) | 0
22 | RNA1{[moe](T)[sp].[moe](T)p.[moe](G)p.[moe](G)p.[moe](T)p.[moe](T)p.d(A)[sp].d(G)[sp].d(T)[sp].d(T)[sp].d(T)[sp].d(T)[sp].d([m5C])[sp].d([m5C])[sp].d(T)[sp].d(T)[sp].[moe](T)p.[moe](T)[sp].[moe](A)}$$$$ (last 3' nucleoside missing) | 0
23 | RNA1{[moe](T)[sp].[moe]([m5C])p.[moe](A)p.[moe]([m5C])p.[moe](A)[sp].d(G)[sp].d([m5C])[sp].d(T)[sp].d(T)[sp].d(T)[sp].d(T)[sp].d(A)[sp].d(T)[sp].[moe](T)p.[moe](T)p.[moe]([m5C])[sp].[moe]([m5C])}$$$$ (last 3' nucleoside missing) | 0
24 | RNA1{[moe](T)[sp].[moe]([m5C])p.[moe]([m5C])p.[moe](T)p.[moe]([m5C])[sp].d(T)[sp].d(T)[sp].d(T)[sp].d([m5C])[sp].d(A)[sp].d([m5C])[sp].d(T)[sp].d(G)[sp].d([m5C])[sp].d(T)[sp].[moe](T)p.[moe]([m5C])p.[moe](T)[sp].[moe](A)}$$$$ (last 3' nucleoside missing) | 3
25 | RNA1{[moe]([m5C])[sp].[moe](A)p.[moe]([m5C])p.[moe](A)p.[moe](G)[sp].d([m5C])[sp].d(T)[sp].d(T)[sp].d(T)[sp].d(T)[sp].d(A)[sp].d(T)[sp].d(T)[sp].d(T)[sp].d([m5C])[sp].[moe]([m5C])p.[moe](A)p.[moe](T)[sp].[moe](A)}$$$$ (last 3' nucleoside missing) | 0
26 | RNA1{[moe]([m5C])[sp].[moe](A)p.[moe]([m5C])p.[moe](A)p.[moe](G)p.[moe]([m5C])p.d(T)[sp].d(T)[sp].d(T)[sp].d(T)[sp].d(A)[sp].d(T)[sp].d(T)[sp].d(T)[sp].d([m5C])[sp].d([m5C])[sp].[moe](A)p.[moe](T)[sp].[moe](A)}$$$$ (last 3' nucleoside missing) | 0
